{
  "source": "patent US11215617B2",
  "about": "“Treatment of metastatic prostate cancer” (The Regents of the University of California, priority 2013, dated 2022)",
  "key": {"[1]": {"system": "C4-2B MR cells", "assay": "Clonogenic assay", "format": "cell-based"}, "[2]": {"system": "STAT3", "details": "DU145 cells, shown previously; cited from earlier work"}, "[3]": {"system": "STAT3", "assay": "STAT3 activation in LNCaP-s17 cells", "format": "cell-based, human", "quoted_text": "(§3) Whole cell protein extracts were resolved on SDS-PAGE and proteins were transferred to nitrocellulose membranes. […] Tubulin was used to monitor the amounts of samples applied. Following secondary antibody incubation, immunoreactive proteins were visualized with an enhanced chemiluminescence detection system (Millipore, Billerica, Mass.)."}, "[4]": {"system": "C4-2B MR cells", "assay": "Cell growth assay", "format": "cell-based", "details": "different concentrations, 48 hours", "protocol": "(§1) Total cell numbers were counted and the cell survival rate (%) was calculated. Cell survival rate (%)=(Treatment group cell number/Control group cell number)×100%. […] Total cell numbers were counted after 2, 4, and 7 days. […] The cells were treated as indicated and total cell numbers were counted."}, "[5]": {"system": "cancer cells", "details": "some reports suggest; cited from earlier work"}, "[6]": {"system": "LNCaP-STAT3C cells", "assay": "Cell migration or invasion (FIG. 25)", "format": "cell-based, human"}, "[7]": {"system": "prostate cancer cells (CWR22rv1, C4-2 AR-V7, C4-2 neo)", "assay": "Clonogenic assay", "format": "cell-based", "details": "0, 0.5, 1.0 μM niclosamide"}, "[8]": {"system": "LNCaP-s17 cells", "assay": "Cell migration or invasion (FIG. 24)", "format": "cell-based, human"}, "[9]": {"system": "CWR22rv1 cells", "assay": "Cell growth assay", "format": "cell-based", "details": "dose and time dependent", "quoted_text": "Total cell numbers were counted after 3 or 5 days. […] Total cell numbers were counted or the cell survival rate (%) was calculated. Cell survival rate (%)=(Treatment group cell number/Control group cell number)×100%."}, "[10]": {"system": "C4-2B and C4-2B MR cells", "assay": "Growth or viability (FIG. 22)", "format": "cell-based"}, "[11]": {"system": "cancer cell metastasis and migration", "details": "in vitro and in vivo, reported; cited from earlier work"}, "[12]": {"system": "PSA", "assay": "Western blot of PSA protein in C4-2 AR-V7 cells", "format": "cell-based", "details": "CS-FBS, 1.0 μM niclosamide or 20 μM enzalutamide overnight", "quoted_text": "as §3"}, "[13]": {"system": "normal cells", "details": "some reports suggest; cited from earlier work"}, "[14]": {"system": "pz-HPV7 cells", "assay": "Cell death ELISA (apoptosis)", "format": "cell-based", "details": "0.5 μM niclosamide, 48 hours", "protocol": "(§2) Floating and attached cells were collected and homogenized in 400 μL of incubation buffer. The wells were coated with antihistone antibodies and incubated with the lysates, horseradish peroxidase-conjugated anti-DNA antibodies, and the substrate. Absorbance was measured at 405 nm."}, "[15]": {"system": "prostate cancer cells (C4-2 neo, C4-2 AR-V7, CWR22rv1)", "assay": "Cell death ELISA (apoptosis)", "format": "cell-based", "details": "0.5 μM niclosamide, 48 hours", "protocol": "as §2"}, "[16]": {"system": "PSA", "assay": "PSA ELISA of culture supernatants of C4-2 AR-V7 cells", "format": "cell-based", "details": "CS-FBS, 1.0 μM niclosamide overnight", "protocol": "PSA levels were measured in the culture supernatants using ELISA (United Biotech, Inc., Mountain View, Calif.) according to the manufacturer's instructions."}, "[17]": {"system": "C4-2B and C4-2B AbiR cells", "assay": "Growth or viability (FIG. 23)", "format": "cell-based"}, "[18]": {"system": "recruitment of AR-V7 to PSA promoter", "assay": "ChIP assay in C4-2 AR-V7 cells", "format": "cell-based", "details": "CS-FBS 3 days, niclosamide (0.5 μM and 1 μM) or 20 μM enzalutamide overnight", "protocol": "C4-2 neo and C4-2 AR-V7 cells were treated as noted herein. DNA-AR protein complexes were cross-linked inside the cells by the addition of 1% formaldehyde. Whole-cell extracts were prepared by sonication, and an aliquot of the cross-linked DNA-protein complexes was immunoprecipitated by incubation with the AR-specific antibody (AR-441 obtained from Santa Cruz Biotechnology) overnight at 4° C. with rotation. Chromatin-antibody complexes were isolated from solution by incubation with protein A/G agarose beads for 1 hour at 4° C. with rotation. The bound DNA-protein complexes were washed and eluted from beads with elution buffer (1% SDS and 0.1 mol/L NaHCO3), crosslinking was reversed, and DNA was extracted. The resulting chromatin preparations were analyzed by PCR using primers spanning either the proximal or the distal enhancer AREs of the PSA promoter. Isotype-matched IgG was used as control."}, "[19]": {"system": "AR", "assay": "PSA luciferase assay in LNCaP cells, DHT induced", "format": "cell-based, human", "details": "niclosamide or enzalutamide with DHT overnight", "description": "LNCaP, C4-2 or 293 cells were transfected with pGL3-PSA6.0-Luc, pGL3-AREI/II-Luc reporters along with AR-V7, for example as indicated in the figures, in FBS or CS-FBS condition. Cell lysates were subjected to luciferase assays with the Luciferase Assay System (Promega)."}, "[20]": {"system": "CWR22rv1 cells", "assay": "Clonogenic assay"}, "[21]": {"system": "LNCaP-s17 cells", "assay": "Cell growth assay", "format": "cell-based, human", "details": "20 μM enzalutamide and 0.25 μM niclosamide individually or in combination, 2, 4 and 7 days"}, "[22]": {"system": "prostate cancer cells", "assay": "Cell growth, migration, invasion and colony formation (FIGS. 16-19)", "format": "cell-based", "details": "effect appears to be dose dependent"}, "[23]": {"system": "CWR22rv1 xenografts", "assay": "CWR22rv1 xenograft tumor growth in SCID mice", "format": "in vivo", "details": "3 weeks", "protocol": "CWR22rv1 cells (3 million) were mixed with matrigel (1:1) and injected subcutaneously into the flanks of 6-7 week male SCID mice. […] Tumors were measured using calipers twice a week and tumor volumes were calculated using length×width2/2. Tumor tissues were harvested after 3 weeks of treatment.\nTumors were measured using calipers twice a week and tumor volumes were calculated using length×width2/2. Tumor tissues were harvested after 3 weeks of treatment. The results are depicted in FIGS. 40A-40D.\nFor the in vivo experiment, CWR22Rv1 cells (4 million) were mixed with matrigel (1:1) and injected subcutaneously into the flanks of male SCID mice. […] Tumors were measured using calipers twice a week and tumor volumes were calculated using length×width2/2. Tumor tissues were harvested after 3 weeks of treatment. The results are depicted in FIGS. 42A-42D.\nCWR22Rv1 cells (4 million) were mixed with matrigel (1:1) and injected subcutaneously into the flanks of 6-7 week male SCID mice. […] Tumors were measured using calipers twice a week and tumor volumes were calculated using length×width2/2. Tumor tissues were harvested after 3 weeks of treatment."}, "[24]": {"system": "pz-HPV7 normal prostate epithelial cells", "assay": "Cell growth assay (cell numbers counted, cell survival rate)", "format": "cell-based", "details": "0.5 μM niclosamide, 48 hours", "protocol": "as §1"}, "[25]": {"system": "prostate cancer cells (C4-2 neo, C4-2 AR-V7, CWR22rv1)", "assay": "Cell growth assay (cell numbers counted, cell survival rate)", "format": "cell-based", "details": "0.5 μM niclosamide, 48 hours, media containing FBS", "protocol": "as §1"}, "[26]": {"details": "C4-2B MR cells, 0.5 μM or 1.0 μM niclosamide, 10 μM or 20 μM enzalutamide"}},
  "note": "“Also recorded” adds a separate entry of the source.",
  "data": [
    {"compound": "O=C(Nc1ccc([N+](=O)[O-])cc1Cl)c1cc(Cl)ccc1O", "note": "[niclosamide, (5-chloro-N-2chloro-4-nitro-phenyl)-2-hydroxybenzamide]", "values": [
      {"measurement": "colony formation", "setting": "[1]; [26]", "result": "significantly inhibited colony formation; also recorded: inhibited colony formation in a dose dependent manner"},
      {"measurement": "colony size", "setting": "[1]; [26]", "result": "significantly inhibited the colony size"},
      {"measurement": "colony formation", "setting": "[1]; C42B MR cells, 0.25 μM niclosamide (FIGS. 37 and 38)", "result": "significantly inhibits colony formation"},
      {"measurement": "enhancement of enzalutamide inhibition of colony formation", "setting": "[1]; C42B MR cells, 0.25 μM niclosamide with 20 μM enzalutamide", "result": "significantly enhances enzalutamide inhibition of colony formation"},
      {"measurement": "STAT3 expression", "setting": "[2]", "result": "able to inhibit STAT3 expression"},
      {"measurement": "STAT3 activation", "setting": "[3]", "result": "significantly inhibited STAT3 activation; also recorded: inhibited constitutively active STAT3 in a dose dependent manner"},
      {"measurement": "cell growth (total cell numbers)", "setting": "[4]", "result": "significantly inhibited; also recorded: inhibited C4-2B MR cell growth in a dose dependent manner"},
      {"measurement": "activity against cancer cells", "setting": "[5]", "result": "active against cancer cells"},
      {"measurement": "cell migration or invasion", "setting": "[6]", "result": "inhibits cell migration or invasion"},
      {"measurement": "clonogenic ability", "setting": "[7]", "result": "significantly inhibited clonogenic ability of prostate cancer cells in a dose dependent manner"},
      {"measurement": "cell migration or invasion", "setting": "[8]", "result": "inhibits cell migration or invasion"},
      {"measurement": "enhancement of bicalutamide effects in vitro", "setting": "[9]", "result": "significantly enhanced bicalutamide effects"},
      {"measurement": "enhancement of the effect of enzalutamide on growth or viability", "setting": "[10]", "result": "enhances the effect of enzalutamide"},
      {"measurement": "cancer cell metastasis and migration", "setting": "[11]", "result": "inhibit cancer cell metastasis and migration in vitro and in vivo"},
      {"measurement": "PSA protein expression (western blot)", "setting": "[12]", "result": "significantly inhibited PSA protein expression"},
      {"measurement": "viability of normal cells", "setting": "[13]", "result": "minimal effects on the viability of normal cells"},
      {"measurement": "cell apoptosis (cell death ELISA)", "setting": "[14]", "result": "little effect"},
      {"measurement": "cell apoptosis (cell death ELISA)", "setting": "[15]", "result": "significantly induced cell apoptosis"},
      {"measurement": "PSA levels (ELISA)", "setting": "[16]", "result": "significantly inhibited PSA levels"},
      {"measurement": "enhancement of the effect of abiraterone on growth or viability", "setting": "[17]", "result": "enhances the effect of arbiraterone"},
      {"measurement": "recruitment of AR-V7 to PSA promoter", "setting": "[18]", "result": "significantly reduced recruitment of AR-V7 to PSA promoter"},
      {"measurement": "DHT induced AR transcriptional activity", "setting": "[19]", "result": "dramatically inhibited DHT induced AR transcriptional activity"},
      {"measurement": "colony formation", "setting": "[20]; CWR22rv1 cells, 0, 0.5 μM or 1.0 μM niclosamide", "result": "inhibited colony formation in a dose dependent manner"},
      {"measurement": "enhancement of enzalutamide inhibition of colony formation", "setting": "[20]; CWR22rv1 cells, 0.25 μM niclosamide with 20 μM enzalutamide", "result": "significantly enhances enzalutamide inhibition of colony formation"},
      {"measurement": "cell growth, time dependent experiment", "setting": "[21]", "result": "little effect"},
      {"measurement": "cell growth", "setting": "[22]", "result": "inhibits"},
      {"measurement": "colony formation", "setting": "[22]", "result": "inhibits"},
      {"measurement": "invasion", "setting": "[22]", "result": "inhibits"},
      {"measurement": "migration", "setting": "[22]", "result": "inhibits"},
      {"measurement": "enhancement of bicalutamide effects in vivo", "setting": "[23]; bicalutamide 25 mg/kg p.o. + niclosamide 25 mg/kg i.p., 5 days per week", "result": "enhanced bicalutamide treatment; also recorded: significantly enhanced bicalutamide effects"},
      {"measurement": "tumor volume", "setting": "[23]; enzalutamide 25 mg/kg p.o., niclosamide 25 mg/kg i.p., or both", "result": "decreased the tumor volume"},
      {"measurement": "xenograft tumor growth", "setting": "[23]; niclosamide 200 mg/kg p.o. B.I.D., 5 days per week", "result": "significantly inhibited Rv1 xenograft tumor growth"},
      {"measurement": "cell growth", "setting": "[24]", "result": "little effects"},
      {"measurement": "cell growth", "setting": "[25]", "result": "significantly inhibited cell growth"}
    ]}
  ]
}
